Series [1] has as its system HIV mutant strain 1 (E138K/G140S/Q148H/N155H). Kind of series: Resistance evaluation test (HeLa-CD4 reporter), mutant strain 1. It is filed as cell-based. Particulars: FC=EC50 of mutant strain/EC50 of wild strain, HeLa-CD4 cells. How it is done: (§1) Serial dilutions of a test sample were prepared in a96-well microplate (50 μL/well). 2.5×10^5 cells/mL of a HeLa-CD4 cell suspension was dispensed at 100 μL/well to the plate containing the test sample. Then, an HIV virus solution (wild strain and mutant strain) was dispensed at 50 μL/well. The plate was mixed with a plate mixer and cultured for 3 days in a CO2 incubator. The culture supernatant in each well was removed by suction. A cell lysis buffer in a reporter assay kit was dispensed at 100 μL/well, and the plate was frozen in a freezer (−80° C.). The plate frozen in a freezer was thawed at room temperature, then mixed with a plate mixer, and centrifuged at 1,200 rpm for 5 minutes. The supernatant of each well was dispensed at 20 μL/well to a 96-well microplate (BLACK). A chemiluminescent reagent in the reporter assay kit was dispensed at 100 μL/well and reacted at room temperature for approximately 1 hour. Then, luminescence intensity was measured using MicroBeta TRILUX. […] FC=EC50 of mutant strain/EC50 of wild strain (Results) FC for the mutant strain 1 (E138K/G140S/Q148H/N155H) and FC for the mutant strain 2 (E92Q/E138T/G140S/Q148H) are shown in the table.

The nature of the next series: Metabolic stability test. The series is classed as in vitro ADME, human. The arrangement: key: % remaining vs amount at 0 min (=100%). The method, then: Commercially available pooled human liver microsomes were reacted with the compound of the present invention for a certain time. A residual rate was calculated by the comparison between the reacted sample and an unreacted sample to evaluate the degree at which the compound of the present invention is metabolized in the liver. A reaction was performed (oxidative reaction) at 37° C. for 0 minutes or 30 minutes in the presence of 1 mmol/L NADPH in 0.2 mL of a buffer (50 mmol/L Tris-HCl pH 7.4, 150 mmol/L potassium chloride, 10 mmol/L magnesium chloride) containing 0.5 mg protein/mL of human liver microsomes. After the reaction, 50 μL of the reaction solution was added to 100 μL of a solution of methanol/acetonitrile=1/1 (v/v) and mixed, and the mixture was centrifuged at 3000 rpm for 15 minutes. The compound of the present invention in the centrifugation supernatant was quantified by LC/MS/MS or solid-phase extraction (SPE)/MS. The amount of the compound of the present invention remaining after the reaction was calculated with the amount of the compound at 0 minutes of the reaction defined as 100%.

Series [2] concerns HIV mutant strain 2 (E92Q/E138T/G140S/Q148H). Kind of series: Resistance evaluation test (HeLa-CD4 reporter), mutant strain 2. The series is classed as cell-based. The note with it: FC=EC50 of mutant strain/EC50 of wild strain, HeLa-CD4 cells. The method, then:
as §1

Another series relates to HIV. Kind of series: Anti-HIV activity (MT-4 cells, MTT). It is filed as cell-based. The note with it: Human immunodeficiency virus 1, MT4, 96 h, cultured 4 days. In short, it runs like this:
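MT-4 cells (2.5×10^5 cells/mL) mixed with serial dilutions of test sample and HIV, cultured 4 days in CO2 incubator. MTT added for 1 h, cells lysed, absorbance read at 560 nm and 690 nm.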

[3] abbreviates: compound 0.5 μmol/L, human liver microsomes 0.5 mg protein/mL, NADPH, 37° C., 30 minutes, amount at 0 minutes defined as 100%.
The mark [4] stands for this setting: human, 30 min, 0.5 μmol/L, pH 7.4.

The values below come from patent US11649236B2, “Polycyclic carbamoylpyridone derivative” (Shionogi & Co., Ltd., priority 2018, dated 2023).

Structures are written as SMILES.

Broadly, the EC50 is the concentration that produces a half-maximal response. For `CCN1C(=O)c2c(O)c(=O)c(C(=O)NCc3c(F)cc(F)cc3F)cn2N2C[C@@H](C)CC[C@@H]12` [II-020], in series [1], the “FC mutant strain 1” value is given as 6.4. Also, the residual rate in “Metabolic stability test” (setting [3]) amounted to 90.7. Also, the “FC mutant strain 2” value in series [2] worked out at 8.9. The midpoint of the response in the series on HIV, the EC50, lay at 1.5 nM.
For `CC(C)N1C(=O)c2c(O)c(=O)c(C(=O)NCc3ccc(F)cc3F)cn2N2C[C@@H]3CC[C@@H](O3)[C@@H]12` [II-021] the same measures were 6.6, 89.1, 9 and 0.72 nM.
The like results for `CN1C(=O)c2c(O)c(=O)c(C(=O)NCc3cccc(Cl)c3F)cn2N2CCCC[C@@H]12` [II-022] were, in that order, 6.8, 101, 7.7 and 0.74 nM.
For `CCN1C(=O)c2c(O)c(=O)c(C(=O)NCc3ccc(F)cc3F)cn2N2CC[C@@H](C)C[C@@H]12` [II-023] the same measures were 7, 82.9, 4.2 and 0.46 nM.
Turning to `C[C@H]1CC[C@H]2N(C)C(=O)c3c(O)c(=O)c(C(=O)NCc4cccc(Cl)c4F)cn3N2C1` [II-024], in series [1], the “FC mutant strain 1” value is reported as 7.3. This compound also registered a residual rate in the series “Metabolic stability test” (setting [3]) of 84.1. For the same compound, the “FC mutant strain 2” value in series [2] was 7. In addition, a half-maximal response with HIV (EC50) required 1.4 nM.
The like results for `CC(C)N1C(=O)c2c(O)c(=O)c(C(=O)NCc3ccc(F)cc3F)cn2N2CCOC[C@@H]12` [II-026] were, in that order, 8.1, 87.5, 14 and 0.18 nM.
The like results for `CCN1C(=O)c2c(O)c(=O)c(C(=O)NCc3ccc(F)cc3F)cn2N2C[C@@H](COC)C[C@@H]12` [II-041] were, in that order, 15, 94.3, 28 and 0.66 nM.
The like results for `C[C@H]1C[C@H]2N(C)C(=O)c3c(O)c(=O)c(C(=O)NCc4cccc(Cl)c4F)cn3N2C1` [II-042] were, in that order, 15, 97.4, 7.9 and 3.2 nM.
On to `CCN1C(=O)c2c(O)c(=O)c(C(=O)NCc3c(F)cc(F)cc3F)cn2N2C[C@@H]3CC[C@@H](O3)[C@@H]12` [II-046], for which the “FC mutant strain 1” value in series [1] was 17. Further, the residual rate in the series “Metabolic stability test” (setting [3]) is 88.4. The “FC mutant strain 2” value in series [2] is recorded as 28. This compound also returned an EC50 in the series with HIV of 0.19 nM.
As to `CC(C)N1C(=O)c2c(O)c(=O)c(C(=O)NCc3c(F)cc(F)cc3F)cn2N2[C@H]3COC[C@H]3C[C@@H]12` [II-048], in series [1], the “FC mutant strain 1” value is recorded as 17. The residual rate in the series “Metabolic stability test” (setting [4]) worked out at 73.3. In addition, the “FC mutant strain 2” value in series [2] is reported as 34. This compound also showed an EC50 in the series with HIV of 0.55 nM.
For the compound `CCN1C(=O)c2c(O)c(=O)c(C(=O)NCc3c(F)cc(F)cc3F)cn2N2C[C@@H](C)C[C@@H]12` [II-049], the “FC mutant strain 1” value in series [1] is reported as 18. The compound further came in with a residual rate in the series “Metabolic stability test” (setting [3]) of 83.2. The “FC mutant strain 2” value in series [2] stood at 17. Besides, the half-maximal effective concentration (EC50) in the series with HIV amounted to 0.77 nM.
Regarding `CCN1C(=O)c2c(O)c(=O)c(C(=O)NCc3cccc(Cl)c3F)cn2N2[C@H]3COC[C@H]3C[C@@H]12` [II-060], the “FC mutant strain 1” value in series [1] amounted to 22. Besides, in “Metabolic stability test” (setting [4]), the residual rate is reported as 61.6. Besides, in series [2], the “FC mutant strain 2” value was found to be 16. The compound further yielded a 50% effective concentration (EC50) in the series on HIV of 0.27 nM.
With `CN1C(=O)c2c(O)c(=O)c(C(=O)NCc3cccc(Cl)c3F)cn2N2C[C@@H]3CC[C@@H](O3)[C@@H]12` [II-066], the “FC mutant strain 1” value in series [1] is recorded as 25. Moreover, the residual rate in the series “Metabolic stability test” (setting [3]) turned out to be 97.7. Moreover, in series [2], the “FC mutant strain 2” value is on record as 15. For the same compound, the concentration giving a half-maximal response (EC50) in the series with HIV is 0.17 nM.
The like results for `CCN1C(=O)c2c(O)c(=O)c(C(=O)NCc3ccc(F)cc3F)cn2N2CC[C@H](C)C[C@@H]12` [II-071] were, in that order, 27, 104, 22 and 0.74 nM.
The like results for `CCN1C(=O)c2c(O)c(=O)c(C(=O)NCc3ccc(F)cc3)cn2N2CCCC[C@@H]12` [II-077] were, in that order, 32, 100, 36 and 1.1 nM.
The like results for `CN1C(=O)c2c(O)c(=O)c(C(=O)NCc3c(F)cc(F)cc3F)cn2N2CCCC[C@@H]12` [II-087] were, in that order, 38, 105, 14 and 1.4 nM.
Regarding `C[C@H]1CC[C@H]2N(C)C(=O)c3c(O)c(=O)c(C(=O)NCc4ccc(Cl)cc4F)cn3N2C1` [II-090], the “FC mutant strain 1” value in series [1] is on record as 38. In addition, the residual rate in “Metabolic stability test” (setting [3]) is given as 95.7. Also, the “FC mutant strain 2” value in series [2] amounted to 25. The compound further returned a concentration giving a half-maximal response (EC50) with HIV of 3.2 nM.
The like results for `CCN1C(=O)c2c(O)c(=O)c(C(=O)NCc3ccc(F)cc3F)cn2N2[C@H](COC)CC[C@@H]12` [II-093] were, in that order, 39, 97.5, 38 and 0.32 nM.
As for `CN1C(=O)c2c(O)c(=O)c(C(=O)NCc3cccc(Cl)c3F)cn2N2CCCC[C@@]12C` [II-099], in series [1], the “FC mutant strain 1” value worked out at 44. In “Metabolic stability test” (setting [3]), this compound returned a residual rate of 88.6. Also, the “FC mutant strain 2” value in series [2] is 26. For the same compound, the EC50 with HIV was 0.33 nM.
In the case of `CCN1C(=O)c2c(O)c(=O)c(C(=O)NCc3ccc(F)cc3F)cn2N2C[C@@H]3CC[C@@H](O3)[C@@H]12` [II-102], the “FC mutant strain 1” value in series [1] is recorded as 47. Besides, in the series “Metabolic stability test” (setting [3]), the residual rate was 101. Also, in series [2], the “FC mutant strain 2” value amounted to 45. The compound also returned an EC50 with HIV of 0.61 nM.
For `CN1C(=O)c2c(O)c(=O)c(C(=O)NCc3cccc(F)c3F)cn2N2CCCC[C@@H]12` [II-104] the same measures were 48, 96.9, 17 and 0.69 nM.
For `CCN1C(=O)c2c(O)c(=O)c(C(=O)NCc3ccc(F)cc3F)cn2N2C[C@H](COC)C[C@@H]12` [II-105] the same measures were 48, 84.3, 62 and 0.58 nM.
The like results for `CN1C(=O)c2c(O)c(=O)c(C(=O)NCc3cccc(Cl)c3F)cn2N2CCOC[C@@H]12` [II-108] were, in that order, 50, 97.2, 27 and 0.61 nM.
As for `CN1C(=O)c2c(O)c(=O)c(C(=O)NCc3cccc(Cl)c3F)cn2N2[C@H]3COC[C@H]3C[C@@H]12` [II-133], the “FC mutant strain 1” value in series [1] was 76. The compound also showed a residual rate in the series “Metabolic stability test” (setting [4]) of 101. In series [2], the “FC mutant strain 2” value is on record as 17. For the same compound, in the series with HIV, the response was half-maximal at 0.43 nM (EC50).
The like results for `CCN1C(=O)c2c(O)c(=O)c(C(=O)NCc3ccc(F)cc3F)cn2N2[C@H]3COC[C@H]3C[C@@H]12` [II-136] were, in that order, 78, 77.2, 110 and 0.65 nM.
